Measured values as given in patent US12564597B2 (priority 2020, dated 2026).

How the values were obtained:
[1] = Example 2B: similar metabolism analysis of further deuterated ibogaine analogs; assay type: in vitro ADME; settings: present tense, no data
Protocol: A similar analysis is performed with each of CD2HO-ibogamine, CDH2O-ibogamine, CD3CD2O-ibogamine, CD3CH2O-ibogamine, CH3CD2O-ibogamine and CH3CDHO-ibogamine.

[2] = Plasma pharmacokinetics and brain distribution in male Wistar rats after a single intraperitoneal dose; settings: for AUC(0-t) / Cmax / Tmax: ip, 40 mg/kg; for AUC(0-t): AUClast
Protocol: Formulation strengths for intraperitoneal administration was 4 mg/mL. A weighed quantity of compound was combined with an appropriate volume of vehicle (10% ethanol and 90% normal saline), the mixture was warmed to 55° C. and vortexed until a clear yellowish solution was obtained. The dosing volume administered was 10 mL/kg for intraperitoneal route.
Healthy male Wistar rats (8-12 weeks old) weighing between 280 to 300 g were procured from Global, India. Three rats were housed in each cage. […] Temperature and humidity were recorded by auto-controlled data logger system. All the animals were provided laboratory rodent diet (Envigo Research private Ltd, Hyderabad). Reverse osmosis water treated with ultraviolet light was provided ad libitum.
Blood samples (approximately 120 μL) were collected under light isoflurane anesthesia from retro orbital plexus from a set of three rats at specified time intervals. Samples were collected into labeled micro-tubes, containing K2EDTA solution (10 μL of 20% K2EDTA of solution per mL of blood) as an anticoagulant. Plasma was immediately harvested from the blood by centrifugation at 4000 rpm for 10 min at 4±2° C. and stored below −70±10° C. until bioanalysis.
Immediately, after blood collection animals were euthanized with excess CO2 and brain was isolated at each time point. Brain was rinsed three times in ice cold PBS (for 5-10 seconds/rinse using ˜5-10 mL fresh PBS in disposable petri dish for each rinse) and dried on blotting paper. Brain samples were homogenized using ice-cold phosphate buffer saline (pH 7.4) and homogenates were stored below −70±10° C. until analysis. Total homogenate volume was three times the tissue weight.
The extraction procedure for plasma and brain samples and the spiked plasma and brain calibration standards were identical: A 25 PL of study sample or spiked plasma and brain calibration standard was added to individual pre-labeled micro-centrifuge tubes followed by 100 PL of internal standard prepared in Acetonitrile (Glipizide, 500 ng/mL) was added except for blank, where 100 μL of Acetonitrile was added. Samples were vortexed for 5 minutes and then centrifuged for 10 minutes at a speed of 4000 rpm at 4° C. Following centrifugation, 100 μL of clear supernatant was transferred to a 96 well plate and analyzed using LC-MS/MS.
Non-compartmental analysis tool of Phoenix WinNonlin® (Version 7.0) was used to assess the pharmacokinetic parameters. Peak plasma concentrations (Cmax) and time for the peak plasma concentrations (Tmax) were the observed values. The areas under the concentration time curve (AUClast and AUCinf) were calculated by linear trapezoidal rule. The terminal elimination rate constant, ke was determined by regression analysis of the linear terminal portion of the log plasma concentration-time curve.

[3] = Metabolic stability and noribogaine formation in rat liver microsomes (RLM); settings: for Percentage turnover of test compounds (percent remaining): 10 μM, +NADPH
Protocol: (§1) Metabolism Studies. Metabolic stability of test compounds was evaluated in liver microsomes from rat (RLM) and human (HLM). This was accomplished by incubating test compounds with microsomes and monitoring disappearance of parent compound as well as metabolite formation over time using LC-MS/MS in Multiple Reaction Monitoring mode (MRM).
(§2) Stock solutions of test compounds were prepared in DMSO at a concentration of 10 mM.
(§3) Total Incubation volume: 100 μL
(§4) Compound concentration: 10 μM
(§5) Protein Concentration: 0.5 mg/mL (0.25 mg/mL for positive controls)
(§6) From the above mix, 70 PL was added to individual wells of 96 well reaction plates and pre-incubated at 37° C. for 5 min. […] Reactions without NADPH and buffer controls (minus NADPH) at 0 min and 60 min were also incubated to rule out non-NADPH metabolism or chemical instability in the incubation buffer. All reactions were terminated using 100 μL of ice-cold acetonitrile containing internal standard (glipizide) at 0, 5, 15, 30 and 60 min.
(§7) Stock solution of noribogaine was prepared in DMSO at a concentration of 20 mM and serially diluted in DMSO to prepare 10, 3, 1, 0.3, 0.1 and 0.03 mM solutions respectively.
(§8) Samples were monitored for parent compounds disappearance and formation of metabolite in MRM mode using LC-MS/MS instrument (API-4000 with Waters UPLC).
(§9) The percent remaining of test compounds and positive control in each sample was determined by considering peak area ratio in the 0 minute sample as 100%.
(§10) In vitro intrinsic clearance (CL′int) (units in mL/min/kg) was calculated using the formula: […]
(§11) For human, monkey, dog, rat and mouse the liver weight are 20 gm, 32 gm, 32 gm, 40 gm and 90 gm respectively.

in vitro = test: in vitro
Protocol: as §1, §2, §3, §4, §5, §6, §7, §8, §9, §10, §11

[4] = Buffer control for chemical instability in the incubation buffer; assay type: physicochemical; settings: Kphos buffer pH 7.4, 37° C., no microsomes, minus NADPH
[5] = 0.08 h after CD3O-ibogamine 40 mg/kg i.p.
[6] = 0.08 h after ibogaine 40 mg/kg i.p.
[7] = 0.5 h after CD3O-ibogamine 40 mg/kg i.p.
[8] = 0.5 h after ibogaine 40 mg/kg i.p.
[9] = 1 h after CD3O-ibogamine 40 mg/kg i.p.
[10] = 1 h after ibogaine 40 mg/kg i.p.
[11] = 2 h after CD3O-ibogamine 40 mg/kg i.p.
[12] = 2 h after ibogaine 40 mg/kg i.p.
[13] = 3 h after CD3O-ibogamine 40 mg/kg i.p.
[14] = 3 h after ibogaine 40 mg/kg i.p.
[15] = male, Wistar, rat, in vivo, plasma, analyte after CD3O-ibogamine 40 mg/kg i.p.
[16] = male, Wistar, rat, in vivo, plasma, analyte after ibogaine 40 mg/kg i.p.
[17] = male, Wistar, rat, in vivo, brain, analyte after CD3O-ibogamine 40 mg/kg i.p.
[18] = male, Wistar, rat, in vivo, brain, analyte after ibogaine 40 mg/kg i.p.

## [2H]COc1ccc2[nH]c3c(c2c1)CCN1CC2CC(CC)C1C3C2 (stereo not drawn) [CDH2O-ibogamine]
[1]
  degradation compared to ibogaine: at least as fast or faster than ibogaine
  formation of noribogaine compared to that of ibogaine: as fast or slower

## CCC1CC2CC3c4[nH]c5ccc(O)cc5c4CCN(C2)C13 (stereo not drawn) [Noribogaine]
[2]; [5]
  Mean brain concentration: 2997 ng/g
  Mean plasma concentration: 208 ng/mL
[2]; [6]
  Mean brain concentration: 2383 ng/g
  Mean plasma concentration: 312 ng/mL
[2]; [7]
  Mean brain concentration: 10413 ng/g
  Mean plasma concentration: 677 ng/mL
[2]; [8]
  Mean brain concentration: 14563 ng/g
  Mean plasma concentration: 1179 ng/mL
[2]; [9]
  Mean brain concentration: 13254 ng/g
  Mean plasma concentration: 736 ng/mL
[2]; [10]
  Mean brain concentration: 17727 ng/g
  Mean plasma concentration: 1455 ng/mL
[2]; [11]
  Mean brain concentration: 14940 ng/g
  Mean plasma concentration: 690 ng/mL
[2]; [12]
  Mean brain concentration: 11692 ng/g
  Mean plasma concentration: 846 ng/mL
[2]; [13]
  Mean brain concentration: 10509 ng/g
  Mean plasma concentration: 584 ng/mL
[2]; [14]
  Mean brain concentration: 10540 ng/g
  Mean plasma concentration: 861 ng/mL
[2]; brain, analyte after CD3O-ibogamine 40 mg/kg i.p.
  AUClast: 36953.27 ng·h/g
[2]; brain, analyte after ibogaine 40 mg/kg i.p.
  AUClast: 39658.47 ng·h/g
[2]; male, Wistar, rat, in vivo
  Mean brain concentration: 17341 ng/g
  Mean plasma concentration: 871 ng/mL
[2]; [15]
  AUC(0-t): 1970 ng·h/mL
  Cmax: 736 ng/mL
  Tmax: 1 h
[2]; [16]
  AUC(0-t): 3030 ng·h/mL
  Cmax: 1460 ng/mL
  Tmax: 1 h
[2]; [17]
  Cmax: 14900 ng/g
  Tmax: 2 h
[2]; [18]
  Cmax: 17700 ng/g
  Tmax: 1 h

## [2H]C([2H])Oc1ccc2[nH]c3c(c2c1)CCN1CC2CC(CC)C1C3C2 (stereo not drawn) [CD2HO-ibogamine]
[1]
  degradation compared to ibogaine: at least as fast or faster than ibogaine
  formation of noribogaine compared to that of ibogaine: as fast or slower

## [2H]C([2H])(C)Oc1ccc2[nH]c3c(c2c1)CCN1CC2CC(CC)C1C3C2 (stereo not drawn) [CH3CD2O-ibogamine]
[1]
  degradation compared to ibogaine: at least as fast or faster than ibogaine
  formation of noribogaine compared to that of ibogaine: as fast or slower

## [2H]C([2H])([2H])C([2H])([2H])Oc1ccc2[nH]c3c(c2c1)CCN1CC2CC(CC)C1C3C2 (stereo not drawn) [CD3CD2O-ibogamine]
[1]
  degradation compared to ibogaine: at least as fast or faster than ibogaine
  formation of noribogaine compared to that of ibogaine: as fast or slower

## CCOc1ccc2[nH]c3c(c2c1)CCN1C[C@H]2C[C@H](CC)C1[C@H]3C2 [EtO-Ibogamine, 10-ethoxy-ibogamine]
[3]; RLM
  CLh, int: 445 mL/min/kg
[3]; RLM, 0 min
  Percentage turnover of test compounds (percent remaining): 100%
[3]; RLM, 5 min
  Percentage turnover of test compounds (percent remaining): 77%
[3]; RLM, 15 min
  Percentage turnover of test compounds (percent remaining): 42%
[3]; RLM, 30 min
  Percentage turnover of test compounds (percent remaining): 3%
[3]; RLM, 60 min
  Percentage turnover of test compounds (percent remaining): 0%
[3]; RLM, summary
  % Remaining at 60 min (+NADPH): 0%
[3]; RLM, without NADPH
  % Remaining at 60 min (−NADPH): 88%
[3]; male, rat, microsomes, pH 7.4
  half-life at 10 μM: 6 min
In vitro; human, microsomes, 0 h, pH 7.4
  Percentage turnover of test compounds (percent remaining): 100%
In vitro; human, microsomes, 5 min, pH 7.4
  Percentage turnover of test compounds (percent remaining): 103%
In vitro; human, microsomes, 0.5 h, pH 7.4
  Percentage turnover of test compounds (percent remaining): 85%
In vitro; human, microsomes, 1 h, pH 7.4
  % Remaining at 60 min (+NADPH): 66%
  % Remaining at 60 min (−NADPH): 106%
  Percentage turnover of test compounds (percent remaining): 66%
In vitro; human, microsomes, […], pH 7.4
  Percentage turnover of test compounds (percent remaining): 98%
In vitro; human, microsomes, pH 7.4
  half-life: > 1 h
In vitro; human, pH 7.4
  CLh, int: 13 mL/min/kg
In vitro; liver microsomes, species not given
  rate of conversion of the compound compared to that of ibogaine: essentially the same
[4]
  % Remaining at 60 min (Buffer): 88%

## [2H]C([2H])([2H])COc1ccc2[nH]c3c(c2c1)CCN1CC2CC(CC)C1C3C2 (stereo not drawn) [CD3CH2O-ibogamine]
[1]
  degradation compared to ibogaine: at least as fast or faster than ibogaine
  formation of noribogaine compared to that of ibogaine: as fast or slower

## [2H]C(C)Oc1ccc2[nH]c3c(c2c1)CCN1CC2CC(CC)C1C3C2 (stereo not drawn) [CH3CDHO-ibogamine]
[1]
  degradation compared to ibogaine: at least as fast or faster than ibogaine
  formation of noribogaine compared to that of ibogaine: as fast or slower
